Reference: PubChem BioAssay (NCI)
Several values for one entry are separate records, joined by “and”; a condition that tells them apart may be missing. Equal entries are not always repeated.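 All cell lines were grown in 96-well plates and treated with compound for 48 hours. Abbreviation: GI50, concentration required for 50% inhibition of growth. Definition used: TGI = concentration required for complete inhibition of growth.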

System: XF 498 CNS
Experiment: growth of human tumour cells (NCI), 48 h

Row | Compound | TGI | GI50
1 | CC1(O)CC2C(CC1SC1CC3C(CC1(C)O)C3(C)C)C2(C)C (configuration not stated) | > 100 µM | 
2 | CCOC(=O)C(C)NC(=O)NC12CC3CC(CC(F)(C3)C1)C2 (configuration not stated) | 89.4 µM | 
3 | Cc1cc(Cl)ccc1NC(=O)/C(=N\NC(C)(C)C)C(C#N)c1nc(-c2ccc([N+](=O)[O-])cc2)cs1 (configuration not stated) | > 100 µM | 
4 | O=C1/C(=C/c2ccccc2Cl)COc2ccc(Br)cc21 | > 100 µM | 
5 | CC(=O)NC(CCCCNCc1ccccc1)C(=O)NCc1ccccc1 (configuration not stated) | > 100 µM | 
6 | O=C1C(Cl)C(c2ccccc2Cl)N1n1cnc2ccccc2c1=O (configuration not stated) | > 100 µM | 
7 | CCOc1ccc(N(CC(=O)N2CC(=O)Nc3cc(C)c(C)cc32)C(C)=O)cc1 | > 100 µM | 
8 | N#C/C(c1nc2ccccc2[nH]1)=c1\s/c(=C/c2ccccc2)c(=O)n1-c1ccccc1 | > 100 µM | 
9 | CCc1cccc(C(C)C)c1NC(=O)/C(=N\NC(N)=O)C(C(=O)OC)c1cnc2ccccc2n1 (configuration not stated) | > 100 µM | 
10 | CCOC(=O)c1c(CN2CCNCC2)nc2ccc(Cl)cc2c1-c1ccccc1 | 9.43 µM | 
11 | N=S(c1ccccc1[N+](=O)[O-])c1ccccc1[N+](=O)[O-] | 11.5 µM and 6.15 µM | 4.84 µM and 2.14 µM
